Measurements reported in article PMC3203319 (The Journal of antibiotics, 2011).
≈ marks a conversion by molar mass, not a printed value.

Legend:
E.cloacae ACH-0008 = experiment: MIC, Gram-negative panel; format: cell-based; conditions: Enterobacter cloacae, ACH0008
S. aureus ATCC 29213 = experiment: Time-kill study; format: cell-based; conditions: 2, 4 and 8 times the MIC, 24 h time course
S.aureus ACH-0231 = experiment: MIC, MRSA panel; format: cell-based; conditions: Staphylococcus aureus
[1] = test system: DNA, RNA, and protein synthesis in S. aureus ATCC 29213; experiment: Macromolecular synthesis assays; format: cell-based; conditions: 10× MIC, 20 min incubation
MSSA = experiment: MIC assay with 50% mouse serum added; format: cell-based, S. aureus; conditions: fold shift in MIC with 50% mouse serum
Plasma stability [2] = format: in vitro ADME; conditions: dog
Plasma stability [3] = format: in vitro ADME; conditions: mouse
Plasma stability [4] = format: in vitro ADME; conditions: rat
P.aeruginosa FQR 467296 = experiment: MIC, Gram-negative panel; format: cell-based; conditions: Pseudomonas aeruginosa, FQR467296
A.baumanii ATCC 9957 = experiment: MIC, Gram-negative panel; format: cell-based; conditions: Acinetobacter baumannii, ATCC9957
rat red blood cell = experiment: Hemolysis, rat red blood cell assay; format: cell-based; conditions: rat red blood cells, data not shown
E.coli FQR 362265 = experiment: MIC, Gram-negative panel; format: cell-based; conditions: Escherichia coli, FQR362265
S.aureus NY 2746 = experiment: MIC, MRSA panel; format: cell-based; conditions: Staphylococcus aureus
[5] = Liver microsome stability; format: in vitro ADME; conditions: human liver microsomes (HLM)
[6] = Stability in dosing vehicle; format: physicochemical; conditions: potassium phosphate at pH 7.4, after 4 h
[7] = test system: E.faecalis (VR) ATCC 700802; experiment: MIC, Gram-positive panel; format: cell-based; conditions: Enterococcus faecalis, ATCC700802
S.aureus ACH-0232 = experiment: MIC, MRSA panel; format: cell-based; conditions: Staphylococcus aureus
S.aureus BK 2384 = experiment: MIC, MRSA panel; format: cell-based; conditions: Staphylococcus aureus
S.aureus BSA 678 = experiment: MIC, MRSA panel; format: cell-based; conditions: Staphylococcus aureus
S.aureus COL = experiment: MIC, MRSA panel; format: cell-based; conditions: Staphylococcus aureus
K.pneumoniae ATCC 13883 = experiment: MIC, Gram-negative panel; format: cell-based; conditions: Klebsiella pneumoniae, ATCC13883
[8] = test system: S.epidermidis (FQR) ACH-0082; experiment: MIC, Gram-positive panel; format: cell-based; conditions: Staphylococcus epidermidis
Plasma stability [9] = format: in vitro ADME; conditions: monkey
Gram-positive bacteria = experiment: MBC analysis, expanded panel of Gram-positive bacteria; format: cell-based; conditions: MIC = MBC
E.faecalis ATCC 29212 = experiment: MIC, Gram-positive panel; format: cell-based; conditions: Enterococcus faecalis, ATCC29212
S.marcescens ACH-0009 = experiment: MIC, Gram-negative panel; format: cell-based; conditions: Serratia marcescens, ACH0009
E.coli 1GC2 = experiment: MIC, Gram-negative panel; format: cell-based; conditions: Escherichia coli
E.faecium ATCC 49032 = experiment: MIC, Gram-positive panel; format: cell-based; conditions: Enterococcus faecium, ATCC49032
[10] = test system: E.faecium (VR) ATCC 700221; experiment: MIC, Gram-positive panel; format: cell-based; conditions: Enterococcus faecium, ATCC700221
S.epidermidis (MS) SE42 = experiment: MIC, Gram-positive panel; format: cell-based; conditions: Staphylococcus epidermidis
S.aureus ATCC 33591 = experiment: MIC, MRSA panel; format: cell-based; conditions: Staphylococcus aureus, ATCC33591|MRSA
[11] = Liver microsome stability; format: in vitro ADME; conditions: rat liver microsomes (RLM)
Plasma stability [12] = format: in vitro ADME; conditions: human
[13] = test system: S.haemolyticus (MS) ACH-0013; experiment: MIC, Gram-positive panel; format: cell-based; conditions: Staphylococcus haemolyticus
[14] = Liver S9 fraction stability; format: in vitro ADME, human
S.typhimurium ATCC 14028 = experiment: MIC, Gram-negative panel; format: cell-based; conditions: Salmonella enterica, ATCC14028|TYPHIMURIUM
MRSA = experiment: MIC assay with 50% human serum added; format: cell-based, S. aureus; conditions: fold shift in MIC with 50% human serum
C. albicans = experiment: MIC against yeast; format: cell-based; conditions: Candida albicans, read-out: MIC C. albicans
S.aureus BSA 643 = experiment: MIC, MRSA panel; format: cell-based; conditions: Staphylococcus aureus
[15] = Liver S9 fraction stability; format: in vitro ADME; conditions: rat liver S9 fraction (RLS9)

SMILES: O=[N+]([O-])c1ccc(-c2nc3cccc(O)c3[nH]2)o1 [Compound 3e, 2-(5-Nitrofuran-2-yl)-3H-benzo[d]imidazole-4ol]
- MIC (E.cloacae ACH-0008): 4 µg/mL (≈ 16.3 µM)
- Time-kill result (S. aureus ATCC 29213): bactericidal
- MIC (S.aureus ACH-0231): 2 µg/mL (≈ 8.16 µM)
- inhibition of DNA, RNA and protein synthesis [1]: significantly inhibited DNA, RNA, and protein at nearly equivalent levels
- Fold Shift Mouse (MSSA): 4 ×
- half-life (Plasma stability [2]): 5.6 h
- half-life (Plasma stability [3]): 3.6 h
- half-life (Plasma stability [4]): 3.9 h
- MIC (P.aeruginosa FQR 467296): > 64 µg/mL
- MIC (A.baumanii ATCC 9957): > 64 µg/mL
- hemolysis (rat red blood cell): negative
- MIC (E.coli FQR 362265): 4 µg/mL (≈ 16.3 µM)
- MIC (S.aureus NY 2746): 2 µg/mL (≈ 8.16 µM)
- time to complete clearance [5]: ≤ 30 min
- stability in dosing vehicle [6]: no degradation
- MIC [7]: 1 µg/mL (≈ 4.08 µM)
- MIC (S.aureus ACH-0232): 2 µg/mL (≈ 8.16 µM)
- MIC (S.aureus BK 2384): 1 µg/mL (≈ 4.08 µM)
- MIC (S.aureus BSA 678): 1 µg/mL (≈ 4.08 µM)
- MIC (S.aureus COL): 1 µg/mL (≈ 4.08 µM)
- MIC (K.pneumoniae ATCC 13883): 8 µg/mL (≈ 32.6 µM)
- MIC [8]: 4 µg/mL (≈ 16.3 µM)
- half-life (Plasma stability [9]): 2 h
- bactericidal activity by MBC analysis (Gram-positive bacteria): bactericidal
- MIC (E.faecalis ATCC 29212): 1 µg/mL (≈ 4.08 µM)
- MIC (S.marcescens ACH-0009): 16 µg/mL (≈ 65.3 µM)
- MIC (E.coli 1GC2): 16 µg/mL (≈ 65.3 µM)
- MIC (E.faecium ATCC 49032): 4 µg/mL (≈ 16.3 µM)
- MIC [10]: 4 µg/mL (≈ 16.3 µM)
- MIC (S.epidermidis (MS) SE42): 1 µg/mL (≈ 4.08 µM)
- MIC (S.aureus ATCC 33591): 2 µg/mL (≈ 8.16 µM)
- time to complete clearance [11]: ≤ 30 min
- half-life (Plasma stability [12]): 4.5 h
- MIC [13]: 0.5 µg/mL (≈ 2.04 µM)
- remaining ([14]; HLS9, after 60 min of incubation): 13%
- half-life ([14]; human, liver S9 fraction): 0.21 h
- MIC (S.typhimurium ATCC 14028): 4 µg/mL (≈ 16.3 µM)
- Fold Shift Human (MRSA): 4 ×
- MIC (C. albicans): > 64 µg/mL
- MIC (S.aureus BSA 643): 1 µg/mL (≈ 4.08 µM)
- clearance time [15]: < 30 min

SMILES: CN[C@H](CC(C)C)C(=O)N[C@H]1C(=O)N[C@@H](CC(N)=O)C(=O)N[C@H]2C(=O)N[C@H]3C(=O)N[C@H](C(=O)N[C@H](C(=O)O)c4cc(O)cc(O)c4-c4cc3ccc4O)[C@H](O)c3ccc(c(Cl)c3)Oc3cc2cc(c3O[C@@H]2O[C@H](CO)[C@@H](O)[C@H](O)[C@H]2O[C@H]2C[C@](C)(N)[C@H](O)[C@H](C)O2)Oc2ccc(cc2Cl)[C@H]1O [Vancomycin, reference compound]
- MIC (S.aureus ACH-0231): 2 µg/mL (≈ 1.38 µM)
- MIC (S.aureus NY 2746): 1 µg/mL (≈ 0.69 µM)
- MIC (S.aureus ACH-0232): 1 µg/mL (≈ 0.69 µM)
- MIC (S.aureus BK 2384): 1 µg/mL (≈ 0.69 µM)
- MIC (S.aureus BSA 678): 1 µg/mL (≈ 0.69 µM)
- MIC (S.aureus COL): 1 µg/mL (≈ 0.69 µM)
- MIC (S.aureus ATCC 33591): 1 µg/mL (≈ 0.69 µM)
- MIC (S.aureus BSA 643): 1 µg/mL (≈ 0.69 µM)
